{"source": "patent US20250243203A1", "about": "“NICOTINAMIDE- AND BENZAMIDE-BASED COMPOUNDS, CONJUGATES, AND COMPOSITIONS AS INHIBITORS OF TRANSLATIONAL- AND TRANSCRIPTIONAL-RELATED KINASES” (PURDUE RESEARCH FOUNDATION, priority 2022, published 2025)", "key": {"p70S6K": {"biological_target": "p70S6K (Homo sapiens, UniProt P23443)", "sequence (P23443 whole entry)": "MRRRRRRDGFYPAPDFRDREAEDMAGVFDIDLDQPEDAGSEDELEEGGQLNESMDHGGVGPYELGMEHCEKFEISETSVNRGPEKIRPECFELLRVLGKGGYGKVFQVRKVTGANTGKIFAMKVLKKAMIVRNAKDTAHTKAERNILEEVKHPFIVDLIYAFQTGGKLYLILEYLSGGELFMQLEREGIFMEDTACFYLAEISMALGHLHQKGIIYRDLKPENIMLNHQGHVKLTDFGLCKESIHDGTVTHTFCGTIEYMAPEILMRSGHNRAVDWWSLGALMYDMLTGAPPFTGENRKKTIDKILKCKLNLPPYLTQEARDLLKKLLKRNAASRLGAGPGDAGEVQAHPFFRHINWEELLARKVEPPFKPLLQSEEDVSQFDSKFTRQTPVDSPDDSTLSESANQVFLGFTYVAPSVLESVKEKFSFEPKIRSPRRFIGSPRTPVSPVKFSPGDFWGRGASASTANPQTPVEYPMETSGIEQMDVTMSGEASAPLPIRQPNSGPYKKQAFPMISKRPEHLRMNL", "experiment": "p70S6K inhibition, in vitro studies at Reaction Biology Corporation", "type": "biochemical", "settings": "25 nM compound, [ATP]=10 uM", "method": "The nature of the substituent on the imidazo[1,2-b]pyridazine moiety at position-6 was evaluated in in vitro studies performed at Reaction Biology Corporation (Malvern, PA). The results indicated the specific substituent dramatically affected the inhibition of p70S6K."}, "[1]": {"biological_target": "T1, MER Proto-Oncogene tyrosine kinase (MERTK) (Homo sapiens, UniProt Q12866)", "T1 construct": "purchased Eurofins DiscoverX (KINOMEscan service)", "T1 sequence (Q12866 21-999)": "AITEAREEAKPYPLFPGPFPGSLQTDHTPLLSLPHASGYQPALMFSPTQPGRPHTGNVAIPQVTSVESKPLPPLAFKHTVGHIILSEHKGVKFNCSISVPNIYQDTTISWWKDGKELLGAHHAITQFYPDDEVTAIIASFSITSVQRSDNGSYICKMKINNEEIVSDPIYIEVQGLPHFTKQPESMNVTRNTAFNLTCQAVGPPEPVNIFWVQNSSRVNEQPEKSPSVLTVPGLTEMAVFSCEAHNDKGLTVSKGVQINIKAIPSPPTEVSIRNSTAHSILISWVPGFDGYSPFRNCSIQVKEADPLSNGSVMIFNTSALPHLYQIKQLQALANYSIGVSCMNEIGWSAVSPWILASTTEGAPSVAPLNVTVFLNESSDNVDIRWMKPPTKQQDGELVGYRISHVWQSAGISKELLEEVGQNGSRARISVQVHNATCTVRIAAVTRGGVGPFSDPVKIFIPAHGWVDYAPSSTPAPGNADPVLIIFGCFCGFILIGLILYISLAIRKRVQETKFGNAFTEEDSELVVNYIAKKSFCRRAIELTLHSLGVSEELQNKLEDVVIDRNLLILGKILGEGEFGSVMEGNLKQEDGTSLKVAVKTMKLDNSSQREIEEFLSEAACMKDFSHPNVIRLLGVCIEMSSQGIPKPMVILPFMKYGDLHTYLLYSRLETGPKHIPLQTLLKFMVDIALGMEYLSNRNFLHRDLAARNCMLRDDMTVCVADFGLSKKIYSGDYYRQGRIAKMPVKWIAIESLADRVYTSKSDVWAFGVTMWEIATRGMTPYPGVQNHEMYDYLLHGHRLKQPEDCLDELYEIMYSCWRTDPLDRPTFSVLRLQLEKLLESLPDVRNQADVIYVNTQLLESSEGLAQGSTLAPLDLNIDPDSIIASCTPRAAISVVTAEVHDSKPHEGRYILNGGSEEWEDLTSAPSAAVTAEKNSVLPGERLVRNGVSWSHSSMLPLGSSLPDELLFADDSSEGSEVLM", "experiment": "KINOMEscan competition binding assay (Eurofins DiscoverX), MERTK", "method": "The affinity of several compounds hereof having a substituent on the imidazo[1,2-b]pyridazine moiety at position-6, wherein the substituent comprised one or more ring moieties was evaluated with respect to two TAM kinases: AXL and MERTK. Perhaps more specifically, the equilibrium dissociation constant between each of compounds HSND141, compound HSND149, HSND150, HSND151, and HSND80 and AXL and MERTK was evaluated at Eurofins DiscoverX using KINOMEscan™, which is a competition binding assay that quantitively measured the ability of each tested compound to displace an immobilized, active-site directed ligand. The assay uses DNA-tagged kinase, an immobilized ligand, and the test compound. Quantitative polymerase chain reaction (PCR) of the DNT tag was then used to measure the ability of the tested compound to displace the immobilized ligand."}, "[2]": {"experiment": "Oral bioavailability study in mice", "type": "in vivo, Male CD1 Mice", "settings": "10 mg/Kg, FIG. 5", "method": "The bioavailability and Cmax of the ring-6-substituted imidazo[1,2-b]pyridazine compounds were also assessed.\nBriefly, compounds were dissolved in 10% dimethylsulfoxide (DMSO)/90% (20% HP-β-CD in water (w/w)). Male CD1 Mice (n=3) were dosed orally with 10 mg/Kg of each compound (HSND80, HSND41, HSND101, HSND102, HSND141, and HSND156). Blood was sampled at 0.25 hours, 0.5 hour, 1 hour, 2 hours, 4 hours, 8 hours, and 24 hours post dose, and the concentration of compound in blood at each specific time point was determined via liquid chromatography-mass spectrometry (LC-MS) (high-performance liquid chromatography (HPLC) instrument: Shimadzu; MS instrument: AB API 5500 LC/MS/MS; Column: HALO C18 90 A 2.7 μm (30*2.1 mm); Mobile phase A: 5% Acetonitrile in Water (0.1% Formic acid); Mobile phase B: 95% Acetonitrile in Water (0.1% Formic acid))."}}, "note": "Where two headings read alike, the source gives them in different places."}
{"smiles": "C[C@@H]1CN(c2ccc3ncc(C#Cc4cncc(C(=O)Nc5ccc(CN6CCN(C)CC6)c(C(F)(F)F)c5)c4)n3n2)C[C@H](C)O1", "note": "[HSND80, 5-((6-((2S,6R)-2,6-Dimethylmorpholino)imidazo[1,2-b]pyridazin-3-yl)ethynyl)-N-(4-((4-methylpiperazin-1-yl)methyl)-3-(trifluoromethyl)phenyl)nicotinamide]", "values": [{"measurement": "inhibition of p70S6K", "setting": "p70S6K", "value": 97, "unit": "%"}, {"measurement": "Kd", "setting": "[1]; FIG. 7A, replicate 1, read-out: Kd MERTK, replicate 1", "value": 1.6, "unit": "nM"}, {"measurement": "Kd", "setting": "[1]; FIG. 7B, replicate 2, read-out: Kd MERTK, replicate 2", "value": 2.1, "unit": "nM"}, {"measurement": "Kd", "setting": "[1]; Table 1, DiscoverX Eurofins, read-out: Kd MERTK", "value": "< 0.17", "unit": "nM"}, {"measurement": "bioavailability", "setting": "[2]", "value": "more bioavailablity than unsubstituted morpholine (compound HSND41)"}]}
